Laboratory results from patent US20100197663A1, “METHOD AND COMPOSITIONS FOR TREATMENT OF PAINFUL DISORDERS” (RODLEN LABORATORIES, INC., priority 2004, published 2010).

Legend:
[1] = system: widespread pain in the neck, back and arms associated with fibromyalgia; assay: Case report: patient with fibromyalgia pain, oral treatment at H.S.; format: in vivo, human; settings: person; analgesic taken by itself, before combination treatment
[2] = system: widespread pain in the neck, shoulders, arms and legs; assay: Case report: patient with widespread pain, headaches, non-restorative sleep and fatigue, oral treatment at H.S.; format: in vivo, human; settings: person; before combination treatment

Structure (SMILES): CC(=O)Nc1ccc(O)cc1 [acetaminophen]
- response of pain to analgesic by itself [1]: unresponsive

Structure (SMILES): CC(C)Cc1ccc(C(C)C(=O)O)cc1 (stereo not drawn) [ibuprofen]
- response of pain to analgesic alone [2]: unresponsive

Structure (SMILES): CC(=O)Oc1ccccc1C(=O)O [aspirin]
- response of pain to analgesic by itself [1]: unresponsive
